Laboratory results from ChEMBL document CHEMBL2429805, “Studies toward the development of new silicon-containing building blocks for the direct (18)F-labeling of peptides” (J Med Chem, 2013).

Legend:
[1] = molecular target: T1, Gastrin-releasing peptide receptor (Homo sapiens, UniProt P30550); experiment: Binding affinity to GRP receptor (unknown origin)
[2] = Half life of the compound in water; assay type: physicochemical
[3] = molecular target: T1, Gastrin-releasing peptide receptor; experiment: Displacement of [125I]-Tyr4-bombesin from GRP receptor in human PC3 cells after 1 hr by gamma-counting analysis; assay type: cell-based, PC-3
[4] = Drug metabolism in PBS buffer assessed as compound hydrolysis; assay type: physicochemical
[5] = Drug metabolism in 0.9% NaCl assessed as compound hydrolysis; assay type: physicochemical
Mus musculus [6] = experiment: Biodistribution in gallbladder of NMRI nude mouse xenografted with human PC3 cells after 120 mins by gamma-counting analysis; assay type: ADME, organism-based, Gall bladder, PC-3; details: in vivo, 2 h
Kidney = experiment: Biodistribution in kidney of NMRI nude mouse xenografted with human PC3 cells after 120 mins by gamma-counting analysis; assay type: ADME, organism-based, PC-3; details: in vivo, 2 h
Spleen = experiment: Biodistribution in spleen of NMRI nude mouse xenografted with human PC3 cells after 120 mins by gamma-counting analysis; assay type: ADME, organism-based, PC-3; details: in vivo, 2 h
Mus musculus [7] = experiment: Biodistribution in tumor of NMRI nude mouse xenografted with human PC3 cells after 120 mins by gamma-counting analysis; assay type: ADME, organism-based, Neoplasm, PC-3; details: in vivo, 2 h
[8] = Lipophilicity, log D of the compound; assay type: physicochemical; details: octanol/water
Blood = experiment: Biodistribution in blood of NMRI nude mouse xenografted with human PC3 cells after 120 mins by gamma-counting analysis; assay type: ADME, organism-based, PC-3; details: in vivo, 2 h
Liver = experiment: Biodistribution in liver of NMRI nude mouse xenografted with human PC3 cells after 120 mins by gamma-counting analysis; assay type: ADME, organism-based, PC-3; details: in vivo, 2 h
[9] = Ratio of biodistribution in tumor to blood of NMRI nude mouse xenografted with human PC3 cells after 120 mins by gamma-counting analysis; assay type: ADME, organism-based, PC-3; details: tumour, 2 h
Pancreas = experiment: Biodistribution in pancreas of NMRI nude mouse xenografted with human PC3 cells after 120 mins by gamma-counting analysis; assay type: ADME, organism-based, PC-3; details: in vivo, 2 h
Intestine = experiment: Biodistribution in intestine of NMRI nude mouse xenografted with human PC3 cells after 120 mins by gamma-counting analysis; assay type: ADME, organism-based, PC-3; details: in vivo, 2 h
[10] = molecular target: T1, Gastrin-releasing peptide receptor; experiment: Displacement of [125I]-Tyr4-bombesin from GRP receptor in human PC3 cells; assay type: cell-based, PC-3

T1 sequence (P30550 whole entry): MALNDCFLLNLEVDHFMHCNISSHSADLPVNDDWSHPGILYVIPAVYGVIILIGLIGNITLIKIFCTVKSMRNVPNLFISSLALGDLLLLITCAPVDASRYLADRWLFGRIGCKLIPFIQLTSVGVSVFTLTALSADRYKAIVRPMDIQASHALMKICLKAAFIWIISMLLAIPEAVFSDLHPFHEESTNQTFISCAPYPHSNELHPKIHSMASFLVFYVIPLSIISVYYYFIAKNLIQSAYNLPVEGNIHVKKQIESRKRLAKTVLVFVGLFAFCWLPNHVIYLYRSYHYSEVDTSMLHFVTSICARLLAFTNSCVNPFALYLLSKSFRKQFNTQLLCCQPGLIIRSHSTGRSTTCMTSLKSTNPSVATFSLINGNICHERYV

With CC(C)C[C@H](NC(=O)C[C@H](O)[C@H](CC(C)C)NC(=O)[C@H](Cc1cnc[nH]1)NC(=O)CN(C)C(=O)[C@@H](NC(=O)[C@H](C)NC(=O)[C@H](Cc1c[nH]c2ccccc12)NC(=O)[C@H](CCC(N)=O)NC(=O)CCCCNC(=O)[C@H](CCCNC(=N)N)NC(=O)Cc1ccc([Si](F)(C(C)(C)C)C(C)(C)C)cc1)C(C)C)C(N)=O the IC50 [1] was 22.9 nM.
Compound CC(C)(C)[Si](F)(CCn1cc(CC(N)C(=O)O)nn1)C(C)(C)C (stereo not drawn) has a half-life [2] of 16 h.
Work on CC(C)C[C@H](NC(=O)C[C@H](O)[C@H](CC(C)C)NC(=O)[C@H](Cc1cnc[nH]1)NC(=O)CN(C)C(=O)[C@@H](NC(=O)[C@H](C)NC(=O)[C@H](Cc1c[nH]c2ccccc12)NC(=O)[C@H](CCC(N)=O)NC(=O)CCCCNC(=O)[C@H](CS(=O)(=O)O)NC(=O)[C@H](CS(=O)(=O)O)NC(=O)Cc1ccc([Si](F)(C(C)(C)C)C(C)(C)C)cc1)C(C)C)C(N)=O yielded an IC50 [3] of 8.3 nM.
CC(C)C[C@H](NC(=O)C[C@H](O)[C@H](CC(C)C)NC(=O)[C@H](Cc1cnc[nH]1)NC(=O)CN(C)C(=O)[C@@H](NC(=O)[C@H](C)NC(=O)[C@H](Cc1c[nH]c2ccccc12)NC(=O)[C@H](CCC(N)=O)NC(=O)CCCCNC(=O)[C@H](CCCNC(=N)N)NC(=O)C(O)C(O)C(=O)NCCc1ccc([Si](F)(C(C)(C)C)C(C)(C)C)cc1)C(C)C)C(N)=O (stereo partly drawn) gave an IC50 [3] of 23 nM.
For CC(C)(C)[Si]([18F])(CCO)C(C)(C)C, the Drug metabolism [4] was “Active”, the half-life [2] was 8 h and the Drug metabolism [5] was “Active”.
With CC(C)(C)[Si]([18F])(CCn1cc(CC(N)C(=O)O)nn1)C(C)(C)C (stereo not drawn) the Drug metabolism [4] was “Active”, the half-life [2] was 16 h and the Drug metabolism [5] was “Active”.
CC(C)C[C@H](NC(=O)C[C@H](O)[C@H](CC(C)C)NC(=O)[C@H](Cc1cnc[nH]1)NC(=O)CN(C)C(=O)[C@@H](NC(=O)[C@H](C)NC(=O)[C@H](Cc1c[nH]c2ccccc12)NC(=O)[C@H](CCC(N)=O)NC(=O)CCCCNC(=O)[C@H](CCCNC(=N)N)NC(=O)Cc1ccc([Si]([18F])(C(C)(C)C)C(C)(C)C)cc1)C(C)C)C(N)=O gave a Drug uptake (Mus musculus [6]) of 146 % ID/g, a Drug uptake (Kidney) of 1.73 % ID/g and a Drug uptake (Spleen) of 0.46 % ID/g. For the same compound, the Drug uptake (Mus musculus [7]) was 0.4 % ID/g, the logD [8] was 1.3 and the Drug uptake (Blood) was 0.42 % ID/g. For the same compound, the Drug uptake (Liver) was 4.4 % ID/g, the Ratio [9] was 0.95 and the Drug uptake (Pancreas) was 4.08 % ID/g. For the same compound, the Drug uptake (Intestine) was 16 % ID/g.
CSCC[C@H](NC(=O)[C@H](CC(C)C)NC(=O)[C@H](Cc1cnc[nH]1)NC(=O)CNC(=O)[C@@H](NC(=O)[C@H](C)NC(=O)[C@H](Cc1c[nH]c2ccccc12)NC(=O)[C@H](CCC(N)=O)NC(=O)[C@H](CC(N)=O)NC(=O)CNC(=O)[C@H](CC(C)C)NC(=O)[C@H](CCCCNC(=O)c1ccc(F)cc1)NC(=O)[C@H](CCC(N)=O)NC(=O)[C@@H]1CCC(=O)N1)C(C)C)C(N)=O showed an IC50 [10] of 5.3 nM.
Compound CC(C)(C)[Si](F)(c1ccc(CC(=O)NCc2ccccc2)cc1)C(C)(C)C has a half-life [2] of over 300 h.
For CC(C)(C)[Si](F)(CCO)C(C)(C)C, the half-life [2] was 8 h.
